Test results from patent US20080051413A1, “Nitrophenylpiperazine derivative of xanthine which relaxes tracheal airway and increases respiratory performance” (KAOHSIUNG MEDICAL UNIVERSITY, priority 2006, published 2008).

Test system: carbachol (1 _M)-precontracted guinea pig trachea
Assay: Isolated tracheal preparation, measurement of tension
Protocol: Isolated Tracheal preparation and Measurement of Tension: Guinea pigs (350-450 g) were anesthetized with pentobarbital (70 mg/kg) i.p. and killed by a sharp blow on the neck, followed by cervical dislocation. The trachea was excised, cleaned of adhering fat and connective tissue, cut transversely into four to five rings, and then opened by cutting longitudinally through the cartilage rings diametrically opposite the tracheal smooth muscle (Hwang T L, Wu C C, and Teng C M (1999) YC-1 potentiates nitric oxide-induced relaxation in guinea-pig trachea. Br J Pharmacol 128:577-584). Then trachea rings were suspended in a 10-ml organ bath containing Krebs' solution (118 mM NaCl, 25 mM NaHCO3, 4.7 mM KCl, 1.2 mM KH2PO4, 1.2 mM MgSO4, 11 mM glucose, and 2.5 mM CaCl2, pH 7.3-7.4) maintained at 37_and aerated with 95% O2 and 5% CO2. Each tracheal tissue sample was subjected to 2 g of initial basal tension. All experiments were carried out in the presence of indomethacin (3 _M) and propranolol (1 _M) to prevent the formation of prostanoids and to inhibit _-adrenergic responses, respectively. Isometric tension was recorded with a force displacement transducer (model FT03; Grass Instruments, Quincy, M A). Before the start of measurements, all preparations were allowed to equilibrate with frequent washing for 1 h. They were first contracted with carbachol (1 _M) to determine the contractility of preparations. This was also done at the end of each experiment. The preparations were then washed and allowed to equilibrate with Krebs' solution for 50 min before being contracted a second time with carbachol (1 _M). When stable constriction to carbachol was reached, concentration responses of KMUP-3 (10, 30, and 100 _M) were obtained. Data were expressed as percentages of the maximum contractile response to carbachol (1 _M).
In experiments to examine the role of epithelium in tracheal relaxation, the epithelial cells were removed mechanically by rubbing the internal surface of trachea with a fine silver wire, and the removal of the epithelial layer was confirmed by histological examination as previously described (Wu et al., 2004).
To examine the possible mechanism of tracheal relaxant effects of KMUP-3, the tracheal strips were pretreated with a K^+ channel blocker, tetraethylammonium (TEA; 10 mM); a KATP channel blocker, glibenclamide (1-M); voltage-dependent K^+ channel blocker, 4-aminopyridine (4-AP, 100 _M); Ca^2+-dependent K^+ channel blockers, apamin (1 _M) and charybdotoxin (ChTX; 0.1 _M); a sGC inhibitor, 1H-[1,2,4]oxadiazolo[4,3-a]quinoxalin-1-one (ODQ; 1 _M); an NOS inhibitor, N—nitro-L-arginine methyl ester (L-NAME; 100 _M); and an adenylate cyclase (AC) inhibitor, SQ 22536 (100 _M) for 30 min prior to the addition of KMUP-3 (10, 30, and 100 _M). In the other experiments, TSMs were precontracted with 60 mM KCl to examine the relaxation achieved by KMUP-3. The KCl solution was prepared by substituting NaCl with KCl (60 mM) in an equimolar amount.

Compound: Cn1c(=O)c2c(ncn2CCN2CCN(c3ccc([N+](=O)[O-])cc3)CC2)n(C)c1=O [KMUP-3]
- relaxation response after epithelium denudation (FIG. 3(A)) (10, 30, 100 _M, EP− versus EP+): significant decrease in the relaxation response
- relaxation, concentration response (10, 30, 100 _M, carbachol- or high-K+-contracted EP+ TSM, also epithelium-denuded): concentration-dependent relaxation
- relaxation of TSM strips (100 _M, carbachol (1 _M)-precontracted): up to 130%
- relaxation in epithelium-intact trachea (FIG. 3(B)) (100 _M, carbachol (1 _M)-precontracted, EP+): cause relaxations
- relaxation in presence of ODQ (1 _M), L-NAME (100 _M) or SQ 22536 (100 _M) (FIG. 5) (30 min pretreatment, EP+ TSM): attenuated
- relaxation against carbachol-induced contractions in presence of K+ channel blockers (FIGS. 4(A)-4(E)) (pretreatment with TEA, glibenclamide, 4-AP, apamin or ChTX, EP+): inhibited
